Results taken from PMC3049581, “Development and evaluation of human AP endonuclease inhibitors in melanoma and glioma cell lines” (British Journal of Cancer, 2011).
Entries after “also recorded” stand apart in the source; their conditions may differ. Read-outs that look alike come from different tables or passages of the source.

Key:
[1] = target: T1, AP endonuclease activity of HeLa whole-cell extracts (WCE) (Homo sapiens, UniProt P27695); assay: Whole-cell extract AP-site cleavage assay; type: biochemical
T1 construct: incubated at 100 μM concentrations with 30 ng of HeLa WCE at room temperature; endogenous in cells; host or cells: HeLa whole-cell extract
T1 sequence (P27695 whole entry): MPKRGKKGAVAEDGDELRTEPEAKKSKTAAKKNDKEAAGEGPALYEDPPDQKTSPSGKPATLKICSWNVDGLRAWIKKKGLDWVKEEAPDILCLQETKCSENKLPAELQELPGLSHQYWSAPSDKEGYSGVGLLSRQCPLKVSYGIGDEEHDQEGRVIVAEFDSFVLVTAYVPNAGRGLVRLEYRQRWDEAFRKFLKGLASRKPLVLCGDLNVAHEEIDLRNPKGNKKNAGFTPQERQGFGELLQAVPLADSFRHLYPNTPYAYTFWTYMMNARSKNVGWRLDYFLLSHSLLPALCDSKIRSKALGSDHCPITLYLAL
Description: The supernatant WCE was retained, the protein concentration determined using the Bio-Rad Bradford reagent, and aliquots were stored at −80°C. AP endonuclease activity assays using 18-mer radiolabelled oligonucleotide substrates (see above) were performed. In brief, all potential APE1 inhibitors were incubated at 100 μM concentrations with 30 ng of HeLa WCE at room temperature for 15 min in incision buffer consisting of 50 mM Tris-HCl, pH 8, 1 mM MgCl2, 50 mM NaCl and 2 mM DTT. After incubation, 0.5 pmol ^32P-radiolabeled THF-containing 18-mer double-stranded DNA substrate was added. […] The radiolabeled substrate and product were separated on a standard polyacrylamide-denaturing gel and quantified by phosphorimager analysis.

[2] = system: SK-Mel30 melanoma cell line; assay: MTS assay, potentiation of cytotoxic agents; type: cell-based; conditions: inhibitor 10 μM
Description: (§1) MeWo, SKMel and MM418 melanoma cancer cell line were grown in RPMI culture medium (supplemented with penicillin 0.06 g l^−1, streptomycin 0.1 g l^−1 pH 7.0, 10% foetal bovine serum (FBS, PAA Cell Culture Company, Yeovil, Somerset, UK). U89 MG and SNB-19 glioma cell lines were grown in DMEM (supplemented with penicillin 0.06 g l^−1, streptomycin 0.1 g l^−1 pH 7.0, 10% foetal bovine serum (FBS, PAA Cell Culture Company). HUVEC endothelial cells were grown in a special media (199 Media+HAMS F12), and supplemented with 20% heat-inactivated foetal calf serum, 1% Hepes, 1% Glutamine, 12.5 μg Human EGF, 625 ng of Human bFGF, 3750 units of Heparin, penicillin 0.06 g l^−1, and streptomycin 0.1 g l^−1) Only cultures with a plating efficiency of over 70% were used for analyses.
(§2) To evaluate intrinsic cytotoxicity and to evaluate the potentiation of toxicity of cytotoxic agents by APE1 inhibitors, MTS assays were performed as per the manufacturer's recommendation (Promega, Southampton, UK). Briefly, 2000 cells per well (in 200 μl of medium) were seeded into a 96-well plate. For HUVEC cells, 5 μl of 2% type 2 gelatine (Sigma) was added to the wells and the plates were preincubated for 20 min at 37°C before seeding of cells. For intrinsic cytotoxicity assessments, cells were incubated with varying concentrations of APE1 inhibitors and the MTS assay was performed on day 5. […] Non-radioactive cell proliferation assay was conducted as described previously.

[3] = system: U89MG glioma cell line; assay: MTS assay, potentiation of cytotoxic agents; type: cell-based; conditions: inhibitor 10 μM
Description: as §1, §2

[4] = system: HUVEC endothelial cells; assay: MTS assay, toxicity in non-cancer cells; type: cell-based; conditions: compared with SK-Mel30 and U89MG
Description: as §1
To evaluate intrinsic cytotoxicity and to evaluate the potentiation of toxicity of cytotoxic agents by APE1 inhibitors, MTS assays were performed as per the manufacturer's recommendation (Promega, Southampton, UK). Briefly, 2000 cells per well (in 200 μl of medium) were seeded into a 96-well plate. For HUVEC cells, 5 μl of 2% type 2 gelatine (Sigma) was added to the wells and the plates were preincubated for 20 min at 37°C before seeding of cells. For intrinsic cytotoxicity assessments, cells were incubated with varying concentrations of APE1 inhibitors and the MTS assay was performed on day 5. […]

Cc1ccc(-c2nc(S(=O)(=O)c3ccccc3)c(SCC(=O)Nc3ccc(F)cc3)o2)cc1 [Compound 4, N-(4-fluorophenyl)-2-(4-phenylsulfonyl-2-(p-tolyl)oxazol-5-yl) sulfanyl-acetamide]
inhibition at 100 µM ([1]; 30 ng HeLa WCE, read-out: WCE Inhibition (whole-cell extracts AP site cleavage inhibition)): > 75%
inhibition of AP site cleavage in WCE assay ([1]; 100 μM, HeLa WCE): > 90%
inhibition at 100 µM ([1]; HeLa WCE, read-out: inhibition of AP site cleavage in WCE assay): ~93%
potentiation of cytotoxicity of MMS [2]: Potentiation
potentiation of cytotoxicity of doxorubicin [2]: did not potentiate
potentiation of cytotoxicity of temozolomide [2]: Potentiation
potentiation of cytotoxicity of MMS [3]: Potentiation; also recorded: significantly potentiated
potentiation of cytotoxicity of doxorubicin [3]: did not potentiate
potentiation of cytotoxicity of temozolomide [3]: Potentiation; also recorded: significantly potentiated
toxicity to HUVEC cells [4]: relatively nontoxic
